BindingDB's records for PubMed 8226867 (Synaptic Pharmaceutical, 1993)

biological target: 5-hydroxytryptamine receptor 6 (Homo sapiens, UniProt P50406)
Sequence (P50406 whole entry): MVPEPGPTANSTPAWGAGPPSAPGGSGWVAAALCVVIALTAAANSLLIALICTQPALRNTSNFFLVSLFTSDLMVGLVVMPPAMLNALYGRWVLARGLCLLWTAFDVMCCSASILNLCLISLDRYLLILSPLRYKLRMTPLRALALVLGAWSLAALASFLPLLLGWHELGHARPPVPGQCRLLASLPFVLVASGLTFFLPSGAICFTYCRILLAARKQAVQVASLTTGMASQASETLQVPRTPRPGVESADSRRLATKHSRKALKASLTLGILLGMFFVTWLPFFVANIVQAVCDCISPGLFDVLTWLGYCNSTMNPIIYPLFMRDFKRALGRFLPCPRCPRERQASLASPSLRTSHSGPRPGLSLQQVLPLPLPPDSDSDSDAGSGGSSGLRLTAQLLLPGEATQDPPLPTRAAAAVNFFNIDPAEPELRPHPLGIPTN

Row | SMILES | Ki
1 | Cc1nc2sccn2c(=O)c1CCN1CCC(=C(c2ccc(F)cc2)c2ccc(F)cc2)CC1 | 16 nM
2 | c1ccc2c(N3CCNCC3)cccc2c1 | 104 nM
3 | CC[C@@H](CO)NC(=O)[C@@H]1C=C2c3cccc4c3c(cn4C)C[C@H]2N(C)C1 | 372 nM
4 | CN1CC(C(=O)N[C@]2(C)O[C@@]3(O)C4CCCN4C(=O)[C@H](Cc4ccccc4)N3C2=O)CC2c3cccc4[nH]cc(c34)CC21 (stereo partly drawn) [7-Methyl-4,6,6a,7,8,9,10,10a-octahydro-indolo[4,3-fg]quinoline-9-carboxylic acid ((2R,5S,10bS)-5-benzyl-10b-hydroxy-2-methyl-3,6-dioxo-octahydro-oxazolo[3,2-a]pyrrolo[2,1-c]pyrazin-2-yl)-amide] | 5.4 nM
5 | CCN(CC)C(=O)[C@@H]1C=C2c3cccc4[nH]c(Br)c(c34)C[C@H]2N(C)C1 [LSD,2-Bromo] | 17.1 nM
6 | CN1C[C@@H](NS(=O)(=O)N(C)C)C[C@@H]2c3cccc4c3c(cn4C)C[C@H]21 [MESULERGINE] | 1720 nM
7 | CN1C[C@H](CNC(=O)OCc2ccccc2)C[C@@H]2c3cccc4c3c(cn4C)C[C@H]21 [METERGOLINE] | 61 nM
8 | NCCc1c[nH]c2ccc(C(N)=O)cc12 [[3H]-5-carboxamidotryptamine] | 253 nM

biological target: 5-hydroxytryptamine receptor 4 (Mus musculus, UniProt P97288)
Sequence (P97288 whole entry): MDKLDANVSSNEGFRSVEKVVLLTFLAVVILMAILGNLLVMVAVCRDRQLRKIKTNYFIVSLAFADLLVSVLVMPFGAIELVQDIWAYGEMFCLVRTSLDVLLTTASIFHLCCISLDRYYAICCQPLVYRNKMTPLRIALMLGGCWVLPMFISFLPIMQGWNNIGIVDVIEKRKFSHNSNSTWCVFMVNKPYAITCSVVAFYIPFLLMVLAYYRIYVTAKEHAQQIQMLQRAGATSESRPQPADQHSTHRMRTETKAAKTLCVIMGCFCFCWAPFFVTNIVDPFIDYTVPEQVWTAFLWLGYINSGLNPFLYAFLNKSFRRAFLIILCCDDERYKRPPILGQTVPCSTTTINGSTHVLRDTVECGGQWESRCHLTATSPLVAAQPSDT

Row | SMILES | Ki
9 | NCCc1c[nH]c2ccccc12 [1H-indole-3-ethanamine] | > 10000 nM

biological target: 5-hydroxytryptamine receptor 4 (Rattus norvegicus, UniProt Q62758)
Sequence (Q62758 whole entry): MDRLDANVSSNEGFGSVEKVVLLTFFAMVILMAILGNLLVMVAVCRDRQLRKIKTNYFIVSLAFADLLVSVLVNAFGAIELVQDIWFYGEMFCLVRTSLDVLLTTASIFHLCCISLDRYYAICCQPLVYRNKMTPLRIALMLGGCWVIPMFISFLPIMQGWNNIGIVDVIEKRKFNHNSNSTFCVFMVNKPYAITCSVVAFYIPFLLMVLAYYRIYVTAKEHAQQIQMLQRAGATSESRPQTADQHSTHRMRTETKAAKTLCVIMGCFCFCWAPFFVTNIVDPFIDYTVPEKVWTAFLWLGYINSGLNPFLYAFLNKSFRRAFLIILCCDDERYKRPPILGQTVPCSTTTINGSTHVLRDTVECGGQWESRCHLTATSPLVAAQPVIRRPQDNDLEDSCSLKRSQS

Row | SMILES | Ki
10 | COc1cc(N)c(Cl)cc1C(=O)NC1CN2CCC1CC2 (stereo unspecified) [ZACOPRIDE,R] | 316 nM
11 | COc1ccc2[nH]cc(CCN)c2c1 [tryptamine, 5-Methoxy] | 316 nM
